Reference: patent publication US11040963B2 (priority 2017, dated 2021)

Legend:
[1] = target: HA H1 A/California/07/09 (Influenza A virus (A/California/07/2009(H1N1)), UniProt C3W5X2); experiment: biochemical; details: Competition binding (AlphaLISA), pIC50 H1 A/California/07/09
[2] = target: HA H1 A/New Caledonia/20/99 (Influenza A virus (A/New Caledonia/20/1999(H1N1)), UniProt Q6WG00); experiment: biochemical; details: Competition binding (AlphaLISA), pIC50 H1 A/New Caledonia/20/99
[3] = target: HA H5 A/Vietnam/1203/04 (Influenza A virus (A/Vietnam/1203/2004(H5N1)), UniProt Q5EP31); experiment: biochemical; details: Competition binding (AlphaLISA), pIC50 H5 A/Vietnam/1203/04
H1N1 A/California/07/09 = experiment: microbe, parasite or virus in culture; format: cell-based, influenza A virus; details: for EC50: Influenza A virus, H1N1, MDCK, 96 h, read-out: Virus neutralization assay (VNA), pEC50 H1N1 A/California/07/09 (converted)
[4] = system: H1N1 A/New Caledonia/20/99; experiment: microbe, parasite or virus in culture; format: cell-based, influenza A virus; details: for EC50: Influenza A virus, H1N1, MDCK, 96 h, read-out: Virus neutralization assay (VNA), pEC50 H1N1 A/New Caledonia/20/99 (converted)
H5N1 A/Vietnam/1203/04 = experiment: microbe, parasite or virus in culture; format: cell-based, influenza A virus; details: 96 h, average of repeats; for EC50: Influenza A virus, H5N1, MDCK, read-out: Virus neutralization assay (VNA), pEC50 H5N1 A/Vietnam/1203/04, MDCK cells, 96 h, CPE by ATPlite (converted)
in vitro = details: dog, Cytotoxicity (pCC50) MDCK

SMILES | IC50 [1] [nM] | IC50 [2] [nM] | IC50 [3] [nM] | EC50 (H1N1 A/California/07/09) [nM] | EC50 [4] [nM] | EC50 (H5N1 A/Vietnam/1203/04) [nM] | CC50 (in vitro) [nM] | Virus neutralization assay (VNA), pEC50 H1N1 A/California/07/09 (H1N1 A/California/07/09) | Virus neutralization assay (VNA), pEC50 H1N1 A/New Caledonia/20/99 [4] | Virus neutralization assay (VNA), pEC50 H5N1 A/Vietnam/1203/04 (H5N1 A/Vietnam/1203/04; MDCK cells, CPE by ATPlite)
Cc1nnc([C@@H](c2ccccc2)N2CCN(C(=O)c3cc(F)cc(-c4nc5cc(C(F)(F)F)ccc5o4)c3)CC2)o1 [Example 63] | 158 | 158 | 15800 | 631 | 501 | > 50100 | > 50100 |  |  | 
O=C(c1cccc(-c2nc3cc(C(F)(F)F)ccc3o2)c1)N1CCN(C(c2ccccc2)c2nnc(C3CC3)o2)CC1 (stereo not drawn) [Example 127] | 79.4 | 251 | 7940 | 2510 | 2000 | 20000 | > 50100 |  |  | 
COc1ccc2nc(-c3cccc(C(=O)N4CCN(C(c5ccccc5)c5ccc[nH]c5=O)CC4)c3)sc2c1 (stereo not drawn) [Example 91] | 501 | 316 | 2510 | 1580 | 794 | > 50100 | 39800 |  |  | 
COC(=O)[C@H](c1ccccc1)N1CCN(C(=O)c2cccc(-c3nc4cc(C(F)(F)F)ccc4o3)c2)[C@H](C(N)=O)C1 [Example 46] | 31.6 | 31.6 | 794 | 200 | 158 | 15800 | 39800 |  |  | 
O=C(c1cccc(-c2nc3cc(C(F)(F)F)ccc3o2)c1)N1CCN(C(c2ccccc2)c2nnc(C3(O)CCC3)o2)CC1 (stereo not drawn) [Example 57] | 50.1 | 79.4 | 2510 | 251 | 501 | 20000 | 39800 |  |  | 
COC(=O)C(c1cccnc1)N1CCN(C(=O)c2cccc(-c3nc4ccc(OC)cc4s3)c2)CC1 (stereo not drawn) [Example 68] | 200 | 100 | 1260 | 2000 | 501 | 20000 | 10000 |  |  | 
O=C(c1cccc(-c2nc3cc(C(F)(F)F)ccc3o2)c1)N1CCN(C(c2ccccc2)c2nnco2)CC1 (stereo not drawn) [Example 107] | 398 | 251 | 20000 | 3160 | 1000 | > 50100 | > 50100 |  |  | 
COC(=O)C(c1ccccc1)N1CCN(C(=O)c2cccc(-c3nc4cc(N(C)C)ccc4o3)c2)CC1 (stereo not drawn) [Example 11] | 7.94 | 6.31 | 316 | 79.4 | 50.1 | 1260 | 3980 |  |  | 
COC(=O)C(c1ccccc1)N1CCN(C(=O)c2cccc(-c3nc4cccnc4o3)c2)CC1 (stereo not drawn) [Example 50] | 63.1 | 63.1 | 3980 | 794 | 316 | 31600 | > 50100 |  |  | 
Cc1nnc(C(c2ccccc2)N2CCN(C(=O)c3cccc(-c4nc5cc(N(C)C)ccc5o4)c3)CC2)o1 (stereo not drawn) [Example 35] | 15.8 | 15.8 | 631 | 200 | 158 | 6310 | 25100 |  |  | 
Cc1nnc(C(c2ccccc2)N2CCN(C(=O)c3cccc(-c4nc5cc(Cl)ccc5o4)c3)CC2)o1 (stereo not drawn) [Example 125] | 158 | 158 | 12600 | 1580 | 2000 | 50100 | 25100 |  |  | 
Cc1cnc(C(c2ccccc2)N2CCN(C(=O)c3cc(-c4nc5cc(OC(F)(F)F)ccc5o4)ccn3)CC2)o1 (stereo not drawn) [Example 20] | 12.6 | 20 | 501 | 79.4 | 100 | 7940 | 25100 |  |  | 
Cc1nnc(C(c2ccccc2)N2CCN(C(=O)c3cc(-c4nc5cc(C(F)(F)F)ccc5o4)ccn3)CC2)o1 (stereo not drawn) [Example 40] | 31.6 | 50.1 | 1260 | 158 | 251 | 10000 | 12600 |  |  | 
COC(=O)C(c1ccccc1)N1CCN(C(=O)c2cccc(-c3nc4cc(NC(C)=O)ccc4o3)c2)CC1 (stereo not drawn) [Example 7] | 6.31 | 3.16 | 158 | 25.1 | 25.1 | 1580 | 31600 |  |  | 
COc1ccc2nc(-c3cccc(C(=O)N4CCN([C@@H](c5ccccc5)c5nnc(C)o5)CC4)c3)sc2c1 [Example 124] | 63.1 | 79.4 | 631 | 501 | 2000 | 3980 | 15800 |  |  | 
CNc1ccc2oc(-c3cccc(C(=O)N4CCN(C(C(=O)OC)c5ccccc5)CC4)c3)nc2c1 (stereo not drawn) [Example 9] | 6.31 | 3.98 | 251 | 63.1 | 39.8 | 1580 | 10000 |  |  | 
O=C(c1cccc(-c2nc3cc(C(F)(F)F)ccc3o2)c1)N1CCN(C(c2ccccc2)c2nnc(C3(O)CNC3)o2)CC1 (stereo not drawn) [Example 87] | 63.1 | 39.8 | 2510 | 398 | 501 | 39800 | > 50100 |  |  | 
CNC(=O)c1cnc(-c2cccc(C(=O)N3CCN(C(C(=O)OC)c4ccccc4)CC3)c2)s1 (stereo not drawn) [Example 64] | 79.4 | 79.4 | 2000 | 1000 | 501 | 25100 | > 50100 |  |  | 
COc1ccc2nc(-c3cccc(C(=O)N4CCN(C(C(C)=O)c5ccccc5)CC4)c3)sc2c1 (stereo not drawn) [Example 90] | 316 | 158 | 1000 |  |  |  | 31600 | 5.8 | 6.1 | <4.3
Cc1nnc([C@@H](c2ccccc2)N2CCN(C(=O)c3cccc(-c4cc5ccccc5cn4)c3)CC2)o1 [Example 95] | 126 | 158 | 5010 | 794 | 1000 | 31600 | 39800 |  |  | 
CC(=O)Nc1ccc2oc(-c3ccnc(C(=O)N4CCN([C@H](c5ccccc5)c5n[nH]c(C)n5)CC4)c3)nc2c1 [Example 2] | 7.94 | 5.01 | 158 | 10 | 2.51 | 1000 | > 50100 |  |  | 
COC(=O)C(c1ccccc1)N1CCN(C(=O)c2cccc(-c3nc4ccc(OC)cc4o3)c2)CC1 (stereo not drawn) [Example 60] | 63.1 | 39.8 | 1580 | 631 | 501 | 12600 | 25100 |  |  | 
CC(=O)Nc1ccc2oc(-c3cccc(C(=O)N4CCN(C(c5ccccc5)c5nnc(C)o5)CC4)c3)nc2c1 (stereo not drawn) [Example 51] | 15.8 | 12.6 | 631 | 251 | 251 | 15800 | 50100 |  |  | 
COC(=O)C(c1ccccc1)N1CCN(C(=O)c2cccc(-c3nc4cc(N)ccc4o3)c2)CC1 (stereo not drawn) [Example 10] | 25.1 | 15.8 | 794 | 79.4 | 50.1 | 2510 | 25100 |  |  | 
COc1ccc2nc(-c3cccc(C(=O)N4CCN(C(C(N)=O)c5ccccc5)CC4)c3)sc2c1 (stereo not drawn) [Example 84] | 316 | 200 | 1580 | 2510 | 631 | 31600 | > 50100 |  |  | 
COC(=O)C(c1ccccc1)N1CCN(C(=O)c2cccc(-c3nc4cc(C(F)(F)F)ccc4o3)c2)CC1 (stereo not drawn) [Example 42] | 39.8 | 39.8 | 1000 | 316 | 251 | 15800 | > 50100 |  |  | 
Cc1nnc(C(c2ccccc2)N2CCN(C(=O)c3cccc(-c4nc5ccncc5o4)c3)CC2)o1 (stereo not drawn) [Example 102] | 200 | 251 | 12600 | 2000 | 1000 | > 50100 | > 50100 |  |  | 
Cc1nnc(C(c2ccccc2)N2CCN(C(=O)c3cccc(-c4nc5cc(C(F)(F)F)ccc5o4)c3)CC2)o1 (stereo not drawn) [Example 86] | 79.4 | 126 | 3160 | 631 | 794 | 31600 | 31600 |  |  | 
COc1nnc(C(c2ccccc2)N2CCN(C(=O)c3cc(-c4nc5cc(OC(F)(F)F)ccc5o4)ccn3)CC2)o1 (stereo not drawn) [Example 21] | 15.8 | 20 | 794 | 100 | 79.4 | 6310 | 12600 |  |  | 
COC(=O)[C@H](c1ccccc1)N1CCN(C(=O)c2cccc(-c3nc4cc(C(F)(F)F)ccc4o3)c2)[C@@H](C)C1 [Example 117] | 126 | 100 | 6310 | 2510 | 1260 | 31600 | > 50100 |  |  | 
